From PMC4508201 (Organic & biomolecular chemistry, 2015)
Read-outs that look alike come from different tables or passages of the source.

Assays:
S1PR3 = S1PR3 (Homo sapiens, UniProt Q99500); experiment: [32P]S1P competitive cell membrane binding assay, S1PR3
S1PR1 = S1PR1 (Homo sapiens, UniProt P21453); experiment: [32P]S1P competitive cell membrane binding assay, S1PR1
recombinant human S1PR2 = recombinant human S1PR2 (Homo sapiens, UniProt O95136); experiment: [32P]S1P competitive cell membrane binding assay, S1PR2
[1] = IC50 S1PR2, competition against [32P]S1P, CHO cell membrane

Sequence of S1PR1 (P21453 whole entry, species assumed): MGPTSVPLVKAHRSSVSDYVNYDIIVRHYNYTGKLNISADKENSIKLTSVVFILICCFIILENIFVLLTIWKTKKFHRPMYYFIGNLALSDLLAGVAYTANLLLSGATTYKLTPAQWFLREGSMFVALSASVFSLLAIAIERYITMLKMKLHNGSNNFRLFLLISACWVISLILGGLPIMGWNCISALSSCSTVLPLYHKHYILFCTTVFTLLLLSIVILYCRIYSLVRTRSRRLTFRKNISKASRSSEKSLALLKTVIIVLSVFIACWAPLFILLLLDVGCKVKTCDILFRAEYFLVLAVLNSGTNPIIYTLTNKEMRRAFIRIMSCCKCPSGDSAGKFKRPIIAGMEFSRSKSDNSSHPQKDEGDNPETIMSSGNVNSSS
Sequence of S1PR3 (Q99500 whole entry, species assumed): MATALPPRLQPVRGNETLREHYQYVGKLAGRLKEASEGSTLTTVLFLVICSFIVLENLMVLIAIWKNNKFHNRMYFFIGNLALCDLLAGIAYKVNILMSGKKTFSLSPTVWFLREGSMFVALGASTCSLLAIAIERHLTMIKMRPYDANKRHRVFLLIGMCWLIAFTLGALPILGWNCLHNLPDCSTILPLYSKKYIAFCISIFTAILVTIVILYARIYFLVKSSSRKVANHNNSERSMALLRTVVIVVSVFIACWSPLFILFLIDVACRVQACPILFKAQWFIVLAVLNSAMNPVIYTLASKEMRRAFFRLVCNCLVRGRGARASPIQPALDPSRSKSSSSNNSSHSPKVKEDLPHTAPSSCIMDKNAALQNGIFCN
Sequence of recombinant human S1PR2 (O95136 whole entry): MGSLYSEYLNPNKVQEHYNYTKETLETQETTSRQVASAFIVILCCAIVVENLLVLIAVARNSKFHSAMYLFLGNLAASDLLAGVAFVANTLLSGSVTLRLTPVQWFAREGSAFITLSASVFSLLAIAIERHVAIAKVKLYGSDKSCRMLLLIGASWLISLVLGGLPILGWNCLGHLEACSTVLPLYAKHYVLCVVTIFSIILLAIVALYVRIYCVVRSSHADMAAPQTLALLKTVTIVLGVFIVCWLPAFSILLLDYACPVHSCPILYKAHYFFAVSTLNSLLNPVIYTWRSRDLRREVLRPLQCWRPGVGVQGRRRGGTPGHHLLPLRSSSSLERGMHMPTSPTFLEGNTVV

IC50 (S1PR3) [nM] | IC50 (S1PR1) [nM] | IC50 (recombinant human S1PR2; [1]) [nM] | IC50 S1PR2 (recombinant human S1PR2; competition against [32P]S1P, CHO cell membrane) | SMILES | IC50 (S1PR3; read-out: IC50 S1PR3, competition against [32P]S1P) [nM] | IC50 (S1PR1; read-out: IC50 S1PR1, competition against [32P]S1P) [nM] | IC50 (recombinant human S1PR2; read-out: IC50 S1PR2, competition against [32P]S1P, CHO cell membrane) [nM] | Binding potency for S1PR2 relative to JTE-013 (recombinant human S1PR2; ratio of IC50 values)
> 1000 | > 1000 | 8.09 ± 0.91 |  | COCOc1cc(NC(=O)NNc2cc(C(C)C)c3c(C)nn(C)c3n2)cc(Cl)n1 [Compound 5e, N-(2-Chloro-6-(methoxymethoxy)pyridin-4-yl)-2-(4-isopropyl-1,3-dimethyl-1H-pyrazolo[3,4-b]pyridin-6-yl)hydrazine-1-carboxamide] |  |  |  | 
> 1000 | > 1000 | 234 |  | COCCOc1cc(NC(=O)NNc2cc(C(C)C)c3c(C)nn(C)c3n2)cc(Cl)n1 [Compound 5c, N-(2-Chloro-6-(2-methoxyethoxy)pyridin-4-yl)-2-(4-isopropyl-1,3-dimethyl-1H-pyrazolo[3,4-b]pyridin-6-yl)hydrazine-1-carboxamide] |  |  |  | 
> 1000 | > 1000 | > 1000 | No binding potency | COCn1c(Cl)cc(NC(=O)NNc2cc(C(C)C)c3c(C)nn(C)c3n2)cc1=O [Compound 5d, N-(6-Chloro-1-(methoxymethyl)-2-oxo-1,2-dihydropyridin-4-yl)-2-(4-isopropyl-1,3-dimethyl-1H-pyrazolo[3,4-b]pyridin-6-yl)hydrazine-1-carboxamide] |  |  |  | 

The remaining lines, values behind:

SMILES | IC50 (S1PR3) [nM] | IC50 (S1PR1) [nM] | IC50 (recombinant human S1PR2; [1]) [nM] | IC50 S1PR2 (recombinant human S1PR2; competition against [32P]S1P, CHO cell membrane) | IC50 (S1PR3; read-out: IC50 S1PR3, competition against [32P]S1P) [nM] | IC50 (S1PR1; read-out: IC50 S1PR1, competition against [32P]S1P) [nM] | IC50 (recombinant human S1PR2; read-out: IC50 S1PR2, competition against [32P]S1P, CHO cell membrane) [nM] | Binding potency for S1PR2 relative to JTE-013 (recombinant human S1PR2; ratio of IC50 values)
Cc1nn(C)c2nc(NNC(=O)Nc3cc(Cl)nc(Cl)c3)cc(C(C)C)c12 [JTE-013, reference compound] |  |  |  |  | > 1000 | > 1000 | 68.5 ± 7.45 | 
Cc1nn(C)c2nc(NNC(=O)Nc3cc(Cl)nc(OCCF)c3)cc(C(C)C)c12 [Compound 5f, N-(2-Chloro-6-(2-fluoroethoxy)pyridin-4-yl)-2-(4-isopropyl-1,3-dimethyl-1H-pyrazolo[3,4-b]pyridin-6-yl)hydrazine-1-carboxamide] | > 1000 | > 1000 | 8.12 ± 0.62 |  |  |  |  | 
COc1cc(NC(=O)NNc2cc(C(C)C)c3c(C)nn(C)c3n2)cc(Cl)n1 [Compound 5a, N-(2-Chloro-6-methoxypyridin-4-yl)-2-(4-isopropyl-1,3-dimethyl-1H-pyrazolo[3,4-b]pyridin-6-yl)hydrazine-1-carboxamide] | > 1000 | > 1000 | 9.52 ± 0.7 |  |  |  |  | seven-fold more potent
Cc1nn(C)c2nc(NNC(=O)Nc3cc(F)nc(Cl)c3)cc(C(C)C)c12 [Compound 5b, N-(2-Chloro-6-fluoropyridin-4-yl)-2-(4-isopropyl-1,3-dimethyl-1H-pyrazolo[3,4-b]pyridin-6-yl)hydrazine-1-carboxamide] | > 1000 | > 1000 | 135 |  |  |  |  | 
